Results published in US20180214395A1 (priority 2017, published 2018).
Where “and” joins values, the source holds several entries; their conditions need not be identical. Equal values may be shown once. Read-outs that look alike come from different tables or passages of the source.

Tests used:
testosterone = assay: Serum testosterone levels in male MAD 25 mg subjects; format: in vivo, human; settings: for Testosterone Levels, individual male subjects: hydrochloride
[1] = Serum glucose (colorimetric kit) in MAD 25 mg subjects; format: in vivo, human; settings: 25 mg per day for 10 days; for Mean serum glucose change vs baseline: six treated subjects; for serum glucose, individual subjects: hydrochloride
[2] = Locomotor activity assessment (distance traveled, rearing); format: in vivo, rat; settings: for Distance traveled min 1-5, Mean / Rearing min 1-5, Mean / Total Distance Traveled, Mean / Total Rearing, Mean: 24 hours prior to testing; for Total Rearing, Mean: 60 minute test
[3] = Novelty-suppressed feeding test (NSFT); format: in vivo; settings: rat; 72 hr after single dose; ketamine 10 mg/kg ip, d-methadone 20 mg/kg sc
[4] = both, human, in vivo
[5] = in vivo
clinical = settings: both, human, in vivo
[6] = molecular target: serotonin transporter (SERT or 5-HT) (Rattus norvegicus, UniProt P31652); assay: biochemical
[7] = Single ascending dose (SAD) study in healthy volunteers: pharmacokinetics of d-methadone; settings: both, human, in vivo
[8] = rat, 24 h after dosing, one-way ANOVA

Sequence of serotonin transporter (SERT or 5-HT) (P31652 whole entry): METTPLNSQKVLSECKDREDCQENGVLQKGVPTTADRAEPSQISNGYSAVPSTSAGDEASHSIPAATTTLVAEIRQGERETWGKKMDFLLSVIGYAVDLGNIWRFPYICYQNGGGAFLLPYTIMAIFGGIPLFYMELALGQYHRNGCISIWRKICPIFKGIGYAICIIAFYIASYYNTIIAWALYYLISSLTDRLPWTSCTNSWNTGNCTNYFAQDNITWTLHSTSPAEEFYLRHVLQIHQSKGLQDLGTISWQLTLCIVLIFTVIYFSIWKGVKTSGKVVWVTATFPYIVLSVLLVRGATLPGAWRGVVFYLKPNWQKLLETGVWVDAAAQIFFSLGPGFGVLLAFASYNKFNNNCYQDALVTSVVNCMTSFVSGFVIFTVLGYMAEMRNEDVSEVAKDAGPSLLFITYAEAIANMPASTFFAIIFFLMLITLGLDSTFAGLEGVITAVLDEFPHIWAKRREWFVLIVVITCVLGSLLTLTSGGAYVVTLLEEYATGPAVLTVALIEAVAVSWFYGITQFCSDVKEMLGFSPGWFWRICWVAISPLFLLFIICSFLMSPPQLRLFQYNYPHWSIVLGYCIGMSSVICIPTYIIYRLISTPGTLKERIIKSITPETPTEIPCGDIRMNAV

CCC(=O)C(C[C@H](C)N(C)C)(c1ccccc1)c1ccccc1 [d-methadone]
Testosterone serum levels (testosterone; 25 mg once per day for ten days, three male subjects): increased | Testosterone Levels, individual male subjects (testosterone; Day 6, 25 mg once a day for 10 days): 13.1 nmol/L | Testosterone Levels, individual male subjects (testosterone; Day 12, 25 mg once a day for 10 days): 14.4 nmol/L and 10.1 nmol/L | Testosterone Levels, individual male subjects (testosterone; Follow Up (Day 18 ± 1), 25 mg once a day for 10 days): 9.6 nmol/L and 13.6 nmol/L and 8.1 nmol/L | Testosterone Levels, individual male subjects (testosterone; Screening (Day −1), baseline, normal range 7.6-31.4): 7.4 nmol/L and 9.2 nmol/L and 4.1 nmol/L | Mean serum glucose change vs baseline ([1]; day 10): −0.08 mmol/I | Mean serum glucose change vs baseline ([1]; day 12): −0.43 mmol/I | serum glucose, individual subjects ([1]; Day-10): 3.2 mmol/I and 4.9 mmol/I | serum glucose, individual subjects ([1]; Day-12): 4.9 mmol/I (3×) and 4.1 mmol/I | Distance traveled min 1-5, Mean ([2]; 10 mg/kg): 597.167 | Rearing min 1-5, Mean ([2]; 10 mg/kg): 26.333 | Total Distance Traveled, Mean ([2]; 10 mg/kg): 2605.500 cm/60 min | Total Rearing, Mean ([2]; 10 mg/kg): 119.167 | Distance traveled min 1-5, Mean ([2]; 20 mg/kg): 556.833 | Rearing min 1-5, Mean ([2]; 20 mg/kg): 28.667 | Total Distance Traveled, Mean ([2]; 20 mg/kg): 2060.667 cm/60 min | Total Rearing, Mean ([2]; 20 mg/kg): 100.167 | Distance traveled min 1-5, Mean ([2]; 40 mg/kg): 447.500 | Rearing min 1-5, Mean ([2]; 40 mg/kg): 17.333 | Total Distance Traveled, Mean ([2]; 40 mg/kg): 1773.000 cm/60 min | Total Rearing, Mean ([2]; 40 mg/kg): 75.000 | Locomotor activity: total distance traveled (60 min) [2, 8]: no significant effect | Locomotor activity: total rearing frequency (60 min) [2, 8]: no significant effect | NSFT: latency to eat in a novel open field [3]: significantly decreased | Number of doses to steady state [4]: 6-7 doses | AUCtau ([4]; 25 mg): 4392 ng·h/mL | AUCtau ([4]; 50 mg): 10,147 h*ng/mL | AUCtau ([4]; 75 mg): 10,537 h*ng/mL | TEAE: any event ([5]; both, human): 5 n (%) [number of events] | TEAE: dizziness ([5]; both, human): 1 n (%) [number of events] | Tolerability [5]: well tolerated | AUC(0-inf) (clinical; 25 mg): 13000 ng·h/mL | Tmax (clinical; 25 mg, Tmax): 2.35 h | AUC(0-inf) (clinical; 50 mg): 32000 ng·h/mL | Cmax (clinical; 50 mg): 587 ng/mL | AUC(0-inf) (clinical; 75 mg): 28900 ng·h/mL | Cmax (clinical; 75 mg): 563 ng/mL | IC50 [6]: 120 nM | AUC(0-inf) ([7]; 5 mg): 1190 ng·h/mL | AUC(0-t) ([7]; 5 mg, AUC0-24, SAD 5 mg, mean): 675 ng·h/mL | AUC(0-t) ([7]; 5 mg, AUC0-last, SAD 5 mg, mean): 1250 ng·h/mL | Cmax ([7]; 5 mg, median, SAD 5 mg): 48.4 ng/mL | AUC(0-inf) ([7]; 20 mg): 6230 ng·h/mL | AUC(0-t) ([7]; 20 mg, AUC0-24, SAD 20 mg, mean): 2310 ng·h/mL | AUC(0-t) ([7]; 20 mg, AUC0-last, SAD 20 mg, mean): 4620 ng·h/mL | Cmax ([7]; 20 mg, SAD 20 mg, mean): 163 ng/mL | AUC(0-inf) ([7]; 60 mg): 14100 ng·h/mL | AUC(0-t) ([7]; 60 mg, AUC0-24, SAD 60 mg, mean): 5540 ng·h/mL | AUC(0-t) ([7]; 60 mg, AUC0-last, SAD 60 mg, mean): 13600 ng·h/mL | Cmax ([7]; 60 mg, SAD 60 mg, mean): 404 ng/mL | AUC(0-inf) ([7]; 100 mg): 31100 ng·h/mL | AUC(0-t) ([7]; 100 mg, AUC0-24, SAD 100 mg, mean): 10700 ng·h/mL | AUC(0-t) ([7]; 100 mg, AUC0-last, SAD 100 mg, mean): 29700 ng·h/mL | Cmax ([7]; 100 mg, SAD 100 mg, mean): 739 ng/mL | AUC(0-inf) ([7]; 150 mg): 32600 ng·h/mL | AUC(0-t) ([7]; 150 mg, AUC0-24, SAD 150 mg, mean): 14600 ng·h/mL | AUC(0-t) ([7]; 150 mg, AUC0-last, SAD 150 mg, mean): 37200 ng·h/mL | Cmax ([7]; 150 mg, SAD 150 mg, mean): 1060 ng/mL | AUC(0-t) ([7]; 200 mg, AUC0-24, SAD 200 mg, n=1): 20700 ng·h/mL | AUC(0-t) ([7]; 200 mg, AUC0-last, SAD 200 mg, n=1): 67700 ng·h/mL | Cmax ([7]; 200 mg, SAD 200 mg, n=1): 1530 ng/mL
